Patent US10160791B2, “Protamine in treatment of neuronal injuries” (UNIVERSITY OF HELSINKI, priority 2013, dated 2018)
Entries after “also recorded” stand apart in the source; their conditions may differ.

What was measured:
[1] = system: embryonic rat hippocampal neurons; assay: Neurite outgrowth assay on aggrecan-coated substrate, hippocampal neurons; type: cell-based; settings: E17 rat hippocampal neurons, plates precoated with aggrecan 10 μg/ml
Protocol: (§1) Cortical or hippocampal neurons from E17 rat embryos were plated at 50,000 cells/cm2 on plastic cell culture plates. Plates were precoated with aggrecan or IgG (10 μg/ml). Protamine, or derived peptides, were precoated together with aggrecan or added to culture medium when plating neurons. Cells were cultured for 1.5-3.5 days and after that images of cell cultures were taken using phase contrast microscope with ×20 objective. Neurite length was quantified using ImagePro software. Mouse neurons were immunostained with anti-tubulin βIII antibodies and imaged using fluorescent microscope.

[2] = system: embryonic rat cortical neurons; assay: Neurite outgrowth assay on aggrecan-coated substrate, cortical neurons; type: cell-based; settings: E17 rat cortical neurons, plates precoated with aggrecan 10 μg/ml, cultured 1.5-3.5 days
Protocol: as §1

[3] = system: mice with spinal cord hemisection; assay: Cylinder test of limb use asymmetry after spinal cord hemisection; type: in vivo, mouse; settings: intracerebroventricular injection, compared to vehicle
Protocol: (§2) Animals were anaesthetized with a intraperitoneal mixture of Ketaminol (2 mg/20 g body weight, Intervet) and Rompun (0.25 mg/20 g body weight, Bayer). After laminectomy at C5 vertebral level, the dura was carefully removed. The right cervical spinal hemicord was transected with a 25G syringe needle from midline dorsal vessel to the lateral side. Bleeding was controlled with haemostatic gelatin sponge. Muscle and skin were sutured with 6-0 monocryl. 30 min before surgery and during following 3 days mice were treated with antibiotic Borgal (30 mg/kg, Intervet). Body weight and bladder expression were checked for 7 days, and animal received Rimadil (5 mg/kg, Pfizer) and Rapidexon (0.2 mg/kg, Evrovet) to control pain and inflammatory swelling until they stop to lose body weight.
Cylinder Test of Limb Use Asymmetry. Mouse was placed to glass cylinder 10 cm in diameter and 14 cm high. Mirror was position at the angle behind of cylinder for better observation. […] The number of rearing in which mouse used right (impaired), left or both limbs for support against the wall were measured. Paw preference were calculated as ratio of total number of left limb use (left+both) to total number of right (impaired) limb use (right+both).
(§3) Statistic. Data obtained from Vertical screen test were analyzed by one-way ANOVA followed by post-hoc Newman-Keuls test for detection of group differences. […]

[4] = system: mice with spinal cord hemisection; assay: Vertical screen test after spinal cord hemisection; type: in vivo, mouse; settings: intracerebroventricular injection, compared to vehicle
Protocol: as §2
Vertical screen (VS). The mouse was placed on a very brink of horizontal wire screen (25×22 cm, diameter of wires 2 mm spaced at 1 cm) faced to edge. Immediately after that the screen was turned vertically to place mouse to upside down position at the lower edge. The time that animal was needed to climb to the upper edge were measured during 1 min. This test was repeated every second week starting from 1st week after surgery.
as §3

wild type RPTPσ = assay: RPTPσ binding assay (ELISA, biotinylated aggrecan), wild type RPTPσ; design: species or system mouse; settings: FIG. 4
Description: (§4) Protamine (salmon) and protamine sulphate (herring) were from Sigma, protamine sulphate (salmon) was from Leo Pharma. Bovine aggrecan was from Sigma. The DNA sequence (the template cDNA clone MGC:63375 IMAGE:6834684) of the CSPG-binding domain of mouse RPTPσ was used for Fc-tagged RPTPσ protein production. Peptides derived from the protamine sequence were custom synthesised by CASLO ApS (Denmark).
(§5) The Fc-tagged extracellular domain of RPTPσ was immobilized on protein G-coated plates. Binding of biotinylated aggrecan to RPTPσ was quantified via colorimetric assay using streptavidin-conjugated horse radish peroxidise. Experiments were done by using protein G coated 96 well plates (Pierce, prod. #15133). Wells were first washed briefly with PBS, 0.05% Tween-20 solution. RPTPσ wild type and mutant FC-fusion proteins were diluted into 2 μg/ml solution in buffer containing PBS, 1% BSA, 0.05% Tween-20. 150 μl of protein solution was added into the wells and plates were left for shaking at +RT for 1 hour. […] Detection of bound Streptavidin-Peroxidase Polymer was done by adding 200 μl of OPD (o-Phenylenediamine dihydrochloride, SIGMA P9187) substrate into the wells and was measured by reading the absorbance at 450 nm (A450).
(§6) Aggrecan binding to RPTPσ was assessed via ELISA using Fc-tagged RPTPσ and biotinylated aggrecan. Binding was quantified using streptavidin-bound horse radish peroxidase. […]

[5] = system: Mutant RPTPσ, with a defective CSPG-binding site; assay: RPTPσ binding assay (ELISA, biotinylated aggrecan), mutant RPTPσ; design: species or system mouse; settings: negative control, biotinylated aggrecan 5 μg/ml, protamine 0-5 μg/ml
Description: as §4, §5, §6

## SRPVRRRRRPRVS [Peptide 3]
[1]
  neuronal attachment and neurite growth on the aggrecan-coated substrate: overcomes the inhibitory action of aggrecan, promoting neuronal attachment and neurite growth

## SRPVRRRRRPRVSRRRRRRGGRRRR [Peptide 2]
[2]
  neuronal attachment and neurite growth on the aggrecan-coated substrate: overcome the inhibitory action of aggrecan, promoting neuronal attachment and neurite growth; also recorded: displayed activity

## VSRRRRRRGGRRRR [Peptide 12]
[3]
  limb usage on the affected side (cylinder test): improves functional recovery
[3]; listed as protamine peptide 12
  limb usage on the affected side (cylinder test): enhances limb usage on the affected side compared to the vehicle
[4]
  time used in the vertical climbing test (vertical screen): improves functional recovery
[4]; listed as protamine peptide 12
  time used in the vertical climbing test (vertical screen): becomes shortened compared to injection of the vehicle only
[2]
  neuronal attachment and neurite growth on the aggrecan-coated substrate: overcome the inhibitory action of aggrecan, promoting neuronal attachment and neurite growth; also recorded: displayed activity

## MPRRRRSSSRPVRRRRRPRVSRRRRRRGGRRRR (Genus/Species name of salmon disclosed by SEQ ID NO 1 is not known) [Protamine, small arginine-rich nuclear protein, from Sigma]
Wild type RPTPσ
  amount of aggrecan binding to RPTPσ (in words): increases the amount of aggrecan binding to RPTPσ
[5]
  aggrecan binding to mutant RPTPσ: not affected
[2]
  neuronal attachment and neurite growth on the aggrecan-coated substrate: overcomes the inhibitory action of aggrecan, promoting neuronal attachment and neurite growth; also recorded: overcame this inhibitory action of aggrecan, promoting neuronal attachment and neurite growth; also recorded: active as both the free protein and as sulphate salt
